A word on the Kd: it is the constant that tells how readily two partners part at equilibrium. Higher therefore signals a looser complex.

This note sets out measurements from PMC12386283, “Elucidating the Complex Structural and Molecular Mechanisms Driving P-Glycoprotein-Mediated Transport of Cardiac Glycosides” (International Journal of Molecular Sciences, 2025).

The target of data set [1] is T1, wild-type mouse Pgp (MDR3) (Mus musculus, UniProt P21447). As for the experimental part: (§1) Overexpression of wild-type mouse Pgp (MDR3) was achieved by using genetically engineered strains of Pichia pastoris with a 6X histidine tag. The cells were cultured in glycerol media, and methanol was used to induce the overexpression of Pgp at the Bioexpression and Fermentation Facility (BFF), University of Georgia, Athens, GA, USA. A repeated cycle of freezing using liquid nitrogen, blending, and thawing was used to lyse the Pgp-expressing P. pastoris cells. The protein was purified using affinity chromatography with nickel-nitrilotriacetic acid (Ni-NTA) resin (Thermo Fisher Scientific, Waltham, MA, USA). DDM was used to solubilize the protein, and the solution was concentrated using Amicon Ultra-15 100 kDa cut-off filters (EMD Millipore, Billerica, MA, USA). The concentration of purified protein was measured at 280 nm using a calculated extinction coefficient of 1.28 per mg mL^−1 on a Nanodrop (DeNovix, Wilmington, DE, USA). […] The purified DDM-solubilized Pgp was aliquoted and stored at −80 °C for future analysis.
(§2) Approximately 40 µL of DDM-solubilized Pgp was dialyzed for two hours against HEPES buffer (20 mM HEPES, 100 mM NaCl, 5 mM MgCl2, 2 mM DTT, pH 7.4) to remove any remnants of the detergent, DDM. The dialyzed protein was mixed with 4 mg mL^−1 of the extruded liposomes and incubated on ice for at least one hour to allow Pgp to integrate into the liposomes. To remove any additional detergent and further facilitate Pgp integration into the liposome, the solution was dialyzed for a second time for two hours in HEPES buffer to form proteoliposomes, and the concentration of Pgp reconstituted in liposomes was determined using the Bio-Rad DC Protein assay. Finally, the solution was aliquoted and stored at −80 °C for future use.
Acrylamide, an aqueous collisional quencher, can be used to determine the changes in conformation upon Pgp-drug interaction. The principle of this technique is that as the drug interacts with the protein, the conformation of the accessible tryptophan residues in the protein also changes, resulting in a shift in fluorescence intensity. For this experiment, to measure the fluorescence of Pgp reconstituted in liposomes, in the presence (250 µM) or absence of drug(s), the excitation and emission wavelengths used were 295 nm and 330 nm, respectively. The proteoliposomes were diluted to a final concentration of 1 µM in Chifflet buffer (pH 7.4) containing 2 mM DTT, and it was titrated against an increasing concentration of acrylamide. A concentration of 11 µM N-acetyl-L-tryptophanamide (NATA), an analog of tryptophan, was used as a positive control to determine non-specific quenching. A saturated concentration of AMPPNP (3.2 mM), a non-hydrolysable form of ATP, was used to generate an outward-open conformation of Pgp. All the experiments for acrylamide quenching were performed at 21 °C. To correct the fluorescence intensities for background, dilution, and inner filter effects, […] was used. A Stern–Volmer plot was constructed with F0(corrected)/F(corrected) versus acrylamide concentration. The slope of the curve determined the degree of quenching, and it was related to the Stern–Volmer constant (Ksv) by Equation (4), as follows:(4) Focorrected/Fcorrected=1+KsvQ where F0(corrected)/F(corrected) = Stern–Volmer plot; Ksv = Stern–Volmer constant; and [Q] = acrylamide concentration.

In data set [2] the target is T1, wild-type mouse Pgp (MDR3). In words: biochemical. As for the experimental part:
as §1, §2
The intrinsic tryptophan residues in the protein can be selectively excited and emitted at 295 nm and 330 nm wavelengths, respectively. The binding of the drug to the protein can alter the spatial arrangement encountered by the tryptophan residue(s) and thereby regulate the fluorescence intensity of the protein [52]. […] Proteoliposomes diluted to 1 µM in Chifflet buffer containing 2 mM DTT were titrated against varying concentrations of drugs. The intrinsic protein fluorescence was measured at 330 nm upon excitation at 295 nm using an Olis DM 45 spectrophotometer (Olis Corporation, Bogart, GA, USA). To nullify the effect of Rayleigh bands on the observed spectra, a 10 nm band-pass filter was inserted on the excitation and emission paths of the spectrophotometer. The drug-induced quenching of intrinsic Pgp fluorescence was corrected (Fcorrected) for factors such as dilution, background fluorescence, and inner filter effects using the equation mentioned below (Equation (2)).(2) Fcorrected=F−B10^εexbex+εembemQ/2 where Fcorrected = Drug-induced quenching of intrinsic Pgp fluorescence; F = Emitted intrinsic Pgp fluorescence at 330 nm; [Q] = Concentration of drug; εex and εem = Excitation and emission extinction coefficients, respectively; bex and bem = Path lengths of excitation (0.4 mm) and emission (10 mm) wavelengths, respectively; and B = Background fluorescence measured from drug and solvent.
The resulting quenching curves were fit using a modified Stern-Volmer equation (Equation (3)), as follows:(3) Fcorrected=FOcorrected/1+KsvQ+Funquenched where Fcorrected = The corrected fluorescence; F0(corrected) = Fluorescence recorded in the absence of drug; [Q] = Concentration of drug; Ksv = Stern–Volmer constant; and F(unquenched) = unquenched fluorescence.

Data set [3] addresses T1, wild-type mouse Pgp (MDR3). To be noted: mouse, not told, pH 7.4. From the text: The STDD NMR technique is a robust method used to characterize the interaction between a drug and receptor protein [36, 86]. This technique utilizes a saturated low-strength radio frequency (RF) to selectively excite the receptor protein. […] Due to the localization of Pgp, most of its substrates are lipophilic, resulting in a probable non-specific interaction between its substrates and liposomes in the observed STD NMR spectrum. Therefore, STD NMR of liposomes in the presence of drugs was performed. The resulting spectrum was subtracted from the ^1H STD NMR spectrum obtained from the drug in the presence of proteoliposome (Pgp reconstituted into liposome) to achieve a saturation transfer double-difference (STDD) NMR spectrum, which nullified the STD observations of the drugs in the presence of liposomes.
This technique was performed as previously described. […] The NMR tubes with the sample were centrifuged at 3000× g for 5 min. To suppress the background signals caused by water, a tailored gradient pulse sequence known as water suppression by gradient-tailored excitation (WATERGATE) was also included. A train of 50 ms Gaussian-shaped selective pulses was used to selectively excite and saturate Pgp for two seconds, and a relaxation delay of five seconds was also used. The STD NMR spectra for both the control and the samples were obtained through phase cycling, where the Pgp irradiation resonance was alternated between 1.5 ppm and 42 ppm on and off resonance, respectively, for 512 scans, creating the ^1H NMR spectrum.
For this experiment, the NMR studies were performed on a Bruker Avance NEO 800 MHz NMR spectrometer with a 1.7 mm TCI H{CN} probe at 25 °C. The STD NMR data generated were analyzed using iNMR software (Nucleomatic, Molfetta, Italy), Igor Pro 6.2, and Mnova 14.2.0 (Mastrelab Research S.L., Santiago de Compostela, Spain).

Molecules are shown by their SMILES.

T1 sequence (P21447 whole entry): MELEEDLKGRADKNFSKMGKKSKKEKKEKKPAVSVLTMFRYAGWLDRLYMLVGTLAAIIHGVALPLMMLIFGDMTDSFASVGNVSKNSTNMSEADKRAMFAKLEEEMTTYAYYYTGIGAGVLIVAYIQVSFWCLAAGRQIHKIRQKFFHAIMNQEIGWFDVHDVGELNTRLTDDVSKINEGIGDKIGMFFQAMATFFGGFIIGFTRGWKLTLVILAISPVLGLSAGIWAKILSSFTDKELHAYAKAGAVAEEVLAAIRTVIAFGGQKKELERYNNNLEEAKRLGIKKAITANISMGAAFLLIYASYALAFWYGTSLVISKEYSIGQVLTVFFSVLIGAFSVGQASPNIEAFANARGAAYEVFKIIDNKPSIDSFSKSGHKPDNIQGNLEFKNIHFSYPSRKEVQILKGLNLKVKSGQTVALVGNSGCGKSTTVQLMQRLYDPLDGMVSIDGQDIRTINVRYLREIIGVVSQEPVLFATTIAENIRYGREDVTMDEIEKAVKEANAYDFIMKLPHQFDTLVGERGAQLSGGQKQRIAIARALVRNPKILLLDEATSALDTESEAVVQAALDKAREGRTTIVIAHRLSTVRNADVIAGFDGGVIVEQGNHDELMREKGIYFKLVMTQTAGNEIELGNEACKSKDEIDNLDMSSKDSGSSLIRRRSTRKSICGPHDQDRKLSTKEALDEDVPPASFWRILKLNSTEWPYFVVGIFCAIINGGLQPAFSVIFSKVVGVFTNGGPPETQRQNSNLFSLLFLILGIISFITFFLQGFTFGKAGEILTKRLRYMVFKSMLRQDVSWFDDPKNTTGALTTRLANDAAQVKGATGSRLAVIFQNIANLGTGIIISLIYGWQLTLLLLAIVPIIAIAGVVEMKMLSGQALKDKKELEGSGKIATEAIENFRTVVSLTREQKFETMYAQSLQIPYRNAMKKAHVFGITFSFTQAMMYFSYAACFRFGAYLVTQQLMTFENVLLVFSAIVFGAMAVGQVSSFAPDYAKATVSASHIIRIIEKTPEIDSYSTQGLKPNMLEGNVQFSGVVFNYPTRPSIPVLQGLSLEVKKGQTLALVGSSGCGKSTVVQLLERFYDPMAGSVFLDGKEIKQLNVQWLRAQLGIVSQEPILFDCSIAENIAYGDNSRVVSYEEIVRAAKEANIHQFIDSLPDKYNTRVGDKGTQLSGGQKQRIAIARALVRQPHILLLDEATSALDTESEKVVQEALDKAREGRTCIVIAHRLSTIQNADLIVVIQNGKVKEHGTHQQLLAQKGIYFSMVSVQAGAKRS

Turning to `Nc1ncnc2c1ncn2[C@@H]1O[C@H](COP(=O)([O-])OP(=O)([O-])NP(=O)([O-])[O-])[C@@H](O)[C@H]1O.[Li+].[Li+].[Li+].[Li+]` [AMPPNP, Adenosine 5′-(β,γ-imido) triphosphate lithium salt], in data set [1], the “Ksv of Pgp (acrylamide quenching) in the presence of AMPPNP alone” value was determined as 1.6 ± 0.01 M⁻¹.

In turn, `C[C@H]1O[C@@H](O[C@H]2[C@@H](O)C[C@H](O[C@H]3[C@@H](O)C[C@H](O[C@H]4CC[C@@]5(C)[C@H](CC[C@@H]6[C@@H]5CC[C@]5(C)[C@@H](C7=CC(=O)OC7)CC[C@]65O)C4)O[C@@H]3C)O[C@@H]2C)C[C@H](O)[C@@H]1O` [Digitoxin] registered a Kd in data set [2] of 16.7 ± 4.44 µM. In addition, in data set [1], the “Pgp conformation upon drug binding in the absence of a nucleotide” value is given as “intermediate”. The “Interaction (Region/Group) Pgp (STDD-NMR Data)” value in data set [3] is “Protons on C3,C17, C18, C19 of steroid; C22 of lactone; C3,C5,C6 of sugar”.
